Test results taken from patent US20040229933A1, “Treatment of hypertension” (Pfizer Inc, priority 2003, published 2004).
Ends that are not written are not given here.

Key:
rat aortic rings = test: Isolated rat aorta assay (organ bath, aortic rings); settings: organ bath system
Experimental: Segments of endothelium intact rat aorta were trim cleaned of fat and surrounding connective tissues and aortic rings strung up in 5 ml organ baths and perfused with oxygenated modified Kreb's solution (118 mM NaCl, 4.7 mM KCl, 25 mM NaHCO3, 11.1 mM glucose, 1.18 mM KH2PO4, 1.18 mM MgSO4 and 2mM CaCl2). Following an equilibration period of approximately 60 min, tissues were challenged with 1 μM phenylephrine (PE). Following a stable response tissues were washed and the above dose of PE was repeated. Once the tissues reached a maximum response 1 μM acetylcholine was administered to determine the percentage of endothelium dependent relaxation. Tissues were washed and cumulative concentration response curves were constructed to Kiss-1 and urotensin-II for a comparison. […] The potential for Kiss-1 mediated vasorelaxation was assessed in aortic rings pre-constricted with 300 nM noradrenaline along with appropriate control tissues with no drug. Drug potency (EC50) and efficacy (Emax) was determined.
Rat aortic rings are set up as described before for measuring Kiss-1 potency and efficacy in a 5 ml organ bath set-up. The potency of antagonist can be determined by constructing a dose response curve to Kiss-1 in the presence of a single concentration of Kiss-1 antagonist or vehicle. […]

GPR54 = GPR54 (Homo sapiens, UniProt Q969F8); settings: cited from earlier work
GPR54, sequence (Q969F8 whole entry, species assumed): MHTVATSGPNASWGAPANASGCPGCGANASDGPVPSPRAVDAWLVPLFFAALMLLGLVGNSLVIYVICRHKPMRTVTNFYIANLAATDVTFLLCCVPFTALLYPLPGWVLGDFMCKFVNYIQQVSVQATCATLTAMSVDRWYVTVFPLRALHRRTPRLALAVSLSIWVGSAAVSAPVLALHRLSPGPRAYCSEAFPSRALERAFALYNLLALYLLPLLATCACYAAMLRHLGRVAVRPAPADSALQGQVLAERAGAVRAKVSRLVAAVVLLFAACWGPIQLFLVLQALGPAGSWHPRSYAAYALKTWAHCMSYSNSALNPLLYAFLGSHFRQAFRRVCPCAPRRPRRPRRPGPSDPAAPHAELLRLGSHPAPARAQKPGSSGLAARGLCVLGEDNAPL

[1] = system: CHO cells transfected with GPR54; settings: cited from earlier work

With “Kiss-1 (45-54): C-terminal fragment of Kiss-1, derived from the 54 amino acid Kiss peptide sequence; Kiss-1 receptor agonist (YNWNSFGLRF-NH2; UniProt Q15726 112-121, looked up, fragment)” the vasoconstriction (rat aortic rings) was “vasoconstriction”.

For “Kiss-1: carboxy-terminally amidated peptide with 54 amino acid residues, also called metastin, isolated from human placenta (GTSLSPPPESSGSPQQPGLSAPHSRQIPAPQGAVLVQREKDLPNYNWNSFGLRF-NH2; UniProt Q15726 68-121, looked up)”, the vasoconstriction (rat aortic rings) is given as “potent vasoconstrictor”, the “agonist activity at GPR54” value (GPR54) is given as “potent agonists” and the “migration, chemotaxis and invasion” value [1] is given as “inhibits migration, chemotaxis and invasion”.

For “Kiss-1 (40-54): C-terminal fragment of Kiss-1 (KDLPNYNWNSFGLRF-NH2; UniProt Q15726 107-121, looked up, fragment)”, the “agonist activity at GPR54” value (GPR54) is listed as “potent agonists”.
